Common to all, as to assay type: biochemical
One assay deals with T1, PI3K delta (Homo sapiens, UniProt O00329).
T1 construct: for the full-length p110-d subunit are generated and fused by overlapping PCR; His tag (C); made in house; host or cells: baculovirus; Tn5 (Trichoplusia ni) or TiniPro insect cells
Kind of assay: PI3 kinase assay (Kinase-Glo luminescence), PI3K delta. The settings on record: Enzymatic Data; read-out: PI3K delta IC50 [umol]. The method in brief: (§1)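 Recombinant PI3K constructs (alfa 10 nM, delta 10 nM, gamma 150 nM) with 1 μM ATP and 10 μg/mL phosphatidylinositol in Tris pH 7.5, MgCl2, NaCl, CHAPS, DTT; 60 min (alfa, delta) or 120 min (gamma) at room temperature. ATP depletion read by Kinase-Glo luminescence; IC50 from 4-parameter logistic fit over 8 concentrations.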

The next assay concerns the target T2, PI3K gamma (Homo sapiens, UniProt P48736).
T2 construct: PI3Kγ BV-950 p110g(D144aa)-C-Term His Tag; His tag (C); made in house; host or cells: construct from the Roger Williams lab (MRC LMB) in pVL1393; baculovirus; Tn5 (Trichoplusia ni) or TiniPro insect cells
The experiment in a line: PI3 kinase assay (Kinase-Glo luminescence), PI3K gamma. The settings on record: Enzymatic Data; read-out: PI3K gamma IC50 [umol]. The method in brief: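 Percent inhibition at eight concentrations (typically 10 to 0.003 […]) fitted to a four-parameter logistic model to give IC50. Reaction initiated with ATP; final ATP 1 μM and phosphatidylinositol 10 μg/mL; ATP consumption read by Kinase-Glo luminescence.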

The target in a further assay is T3, PI3K beta (Homo sapiens, UniProt P42338).
T3 construct: for the full-length p110-b subunit are generated and fused by overlapping PCR; His tag (C); made in house; host or cells: baculovirus; Tn5 (Trichoplusia ni) or TiniPro insect cells
T3 sequence (P42338 with tags, fused parts or gaps limits assumed): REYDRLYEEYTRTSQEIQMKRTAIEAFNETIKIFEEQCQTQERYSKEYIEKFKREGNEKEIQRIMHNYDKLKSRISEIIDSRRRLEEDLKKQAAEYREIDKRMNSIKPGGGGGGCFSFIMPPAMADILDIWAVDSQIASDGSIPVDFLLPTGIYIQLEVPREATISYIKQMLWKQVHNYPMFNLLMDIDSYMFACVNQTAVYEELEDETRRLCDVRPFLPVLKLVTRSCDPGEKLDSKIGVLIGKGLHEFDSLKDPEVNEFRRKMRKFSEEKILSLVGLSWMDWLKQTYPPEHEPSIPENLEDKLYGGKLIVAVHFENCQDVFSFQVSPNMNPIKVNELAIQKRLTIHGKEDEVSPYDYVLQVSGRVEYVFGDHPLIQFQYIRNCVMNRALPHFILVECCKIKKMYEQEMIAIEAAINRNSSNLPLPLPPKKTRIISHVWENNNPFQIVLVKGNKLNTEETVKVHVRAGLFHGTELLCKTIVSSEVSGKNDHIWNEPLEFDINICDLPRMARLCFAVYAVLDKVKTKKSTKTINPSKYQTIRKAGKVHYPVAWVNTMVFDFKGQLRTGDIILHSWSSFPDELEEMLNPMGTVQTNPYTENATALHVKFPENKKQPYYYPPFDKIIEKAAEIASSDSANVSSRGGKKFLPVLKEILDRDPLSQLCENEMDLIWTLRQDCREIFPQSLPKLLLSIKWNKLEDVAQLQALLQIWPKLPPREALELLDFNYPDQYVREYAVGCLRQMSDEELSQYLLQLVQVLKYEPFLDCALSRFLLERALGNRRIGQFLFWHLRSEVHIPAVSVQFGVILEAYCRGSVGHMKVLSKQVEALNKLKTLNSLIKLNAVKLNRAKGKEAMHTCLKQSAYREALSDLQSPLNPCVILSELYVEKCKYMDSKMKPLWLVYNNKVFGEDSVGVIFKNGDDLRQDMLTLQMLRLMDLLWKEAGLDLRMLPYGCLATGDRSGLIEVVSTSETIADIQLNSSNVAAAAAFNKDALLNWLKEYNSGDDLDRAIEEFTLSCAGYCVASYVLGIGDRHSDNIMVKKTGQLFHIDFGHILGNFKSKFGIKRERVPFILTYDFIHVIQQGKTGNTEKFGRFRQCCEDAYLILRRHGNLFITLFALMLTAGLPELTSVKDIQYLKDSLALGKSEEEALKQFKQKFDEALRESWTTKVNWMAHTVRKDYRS
Kind of assay: PI3 kinase assay (Kinase-Glo luminescence), PI3K beta. The note with it: Enzymatic Data; read-out: PI3K beta IC50 [umol]. The procedure, abridged:
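PI3Kβ (25 nM, BV-949) with 10 μg/mL phosphatidylinositol in Tris pH 7.5/MgCl2/NaCl/CHAPS/DTT buffer; reaction started with 1 μM ATP, 60 min at room temperature. ATP depletion read by Kinase-Glo luminescence; 8-point dilutions, IC50 by four-parameter logistic fit.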

The target in another assay is T4, PI3K alfa (Homo sapiens, UniProt P42336).
T4 construct: for the p110-a subunit (with a deletion of the first 20 amino acids); His tag (C); made in house; host or cells: baculovirus; Tn5 (Trichoplusia ni) or TiniPro insect cells
T4 sequence (P42336 with tags, fused parts or gaps limits assumed): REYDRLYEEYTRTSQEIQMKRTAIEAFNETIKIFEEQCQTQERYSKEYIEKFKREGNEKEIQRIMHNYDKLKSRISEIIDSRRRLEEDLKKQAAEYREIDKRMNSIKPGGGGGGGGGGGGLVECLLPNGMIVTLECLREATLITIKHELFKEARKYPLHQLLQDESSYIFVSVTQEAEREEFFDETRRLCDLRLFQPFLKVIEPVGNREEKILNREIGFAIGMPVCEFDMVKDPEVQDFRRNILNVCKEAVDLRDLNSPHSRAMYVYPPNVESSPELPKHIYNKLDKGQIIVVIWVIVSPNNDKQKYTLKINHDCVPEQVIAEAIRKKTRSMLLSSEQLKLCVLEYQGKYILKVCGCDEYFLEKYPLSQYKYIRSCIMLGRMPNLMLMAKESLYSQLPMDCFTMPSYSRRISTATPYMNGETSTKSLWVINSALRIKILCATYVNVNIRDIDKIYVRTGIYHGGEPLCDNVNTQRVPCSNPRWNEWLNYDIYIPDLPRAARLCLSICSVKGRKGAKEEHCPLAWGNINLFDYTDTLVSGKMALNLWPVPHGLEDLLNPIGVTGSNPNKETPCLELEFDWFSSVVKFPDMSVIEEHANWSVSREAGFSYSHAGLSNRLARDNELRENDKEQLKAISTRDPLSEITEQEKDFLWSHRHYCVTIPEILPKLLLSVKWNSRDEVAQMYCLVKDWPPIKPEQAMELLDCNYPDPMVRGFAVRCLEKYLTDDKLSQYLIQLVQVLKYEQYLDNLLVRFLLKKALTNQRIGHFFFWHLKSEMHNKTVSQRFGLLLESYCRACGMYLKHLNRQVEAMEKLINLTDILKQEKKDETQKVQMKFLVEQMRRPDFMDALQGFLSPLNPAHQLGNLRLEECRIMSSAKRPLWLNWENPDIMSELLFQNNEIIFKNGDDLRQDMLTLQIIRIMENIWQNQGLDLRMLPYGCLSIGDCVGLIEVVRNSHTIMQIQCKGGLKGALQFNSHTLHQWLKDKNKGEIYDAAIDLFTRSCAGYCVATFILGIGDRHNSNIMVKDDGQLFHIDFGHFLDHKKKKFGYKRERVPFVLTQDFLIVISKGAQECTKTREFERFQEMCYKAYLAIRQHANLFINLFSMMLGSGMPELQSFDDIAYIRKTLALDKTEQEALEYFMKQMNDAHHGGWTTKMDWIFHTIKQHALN
Kind of assay: PI3 kinase assay (Kinase-Glo luminescence), PI3K alfa. The note with it: Enzymatic Data; read-out: PI3K alfa IC50 [umol]. The method in brief:
as §1

T1 sequence (O00329 with tags, fused parts or gaps limits assumed): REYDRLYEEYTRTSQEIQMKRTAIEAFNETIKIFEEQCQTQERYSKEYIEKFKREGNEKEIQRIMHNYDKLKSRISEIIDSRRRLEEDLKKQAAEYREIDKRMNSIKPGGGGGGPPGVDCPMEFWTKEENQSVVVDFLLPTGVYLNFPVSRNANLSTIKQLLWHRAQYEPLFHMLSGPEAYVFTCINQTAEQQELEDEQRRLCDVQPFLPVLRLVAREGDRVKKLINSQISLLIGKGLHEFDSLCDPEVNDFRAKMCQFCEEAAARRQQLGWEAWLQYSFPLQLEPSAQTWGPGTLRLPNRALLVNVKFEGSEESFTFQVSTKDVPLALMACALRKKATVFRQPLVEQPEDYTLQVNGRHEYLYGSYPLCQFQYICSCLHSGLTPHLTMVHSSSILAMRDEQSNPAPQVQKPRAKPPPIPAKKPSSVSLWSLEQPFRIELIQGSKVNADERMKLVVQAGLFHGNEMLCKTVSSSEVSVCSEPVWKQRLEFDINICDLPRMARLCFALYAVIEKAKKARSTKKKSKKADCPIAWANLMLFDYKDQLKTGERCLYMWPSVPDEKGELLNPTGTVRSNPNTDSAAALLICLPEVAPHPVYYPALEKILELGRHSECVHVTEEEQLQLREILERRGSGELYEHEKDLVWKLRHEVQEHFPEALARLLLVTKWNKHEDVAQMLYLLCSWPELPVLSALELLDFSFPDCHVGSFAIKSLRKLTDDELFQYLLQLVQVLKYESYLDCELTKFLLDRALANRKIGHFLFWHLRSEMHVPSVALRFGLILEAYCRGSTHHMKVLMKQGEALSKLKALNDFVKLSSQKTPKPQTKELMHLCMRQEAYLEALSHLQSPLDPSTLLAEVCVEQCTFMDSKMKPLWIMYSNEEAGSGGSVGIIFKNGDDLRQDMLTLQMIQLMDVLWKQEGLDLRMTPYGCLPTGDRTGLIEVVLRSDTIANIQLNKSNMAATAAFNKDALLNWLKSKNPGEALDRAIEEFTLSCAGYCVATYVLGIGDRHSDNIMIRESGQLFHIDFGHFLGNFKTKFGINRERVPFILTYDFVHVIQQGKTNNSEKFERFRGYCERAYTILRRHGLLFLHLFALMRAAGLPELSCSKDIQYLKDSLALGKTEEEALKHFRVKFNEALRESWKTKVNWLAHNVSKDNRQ
T2 sequence (P48736 144-1102 limits assumed): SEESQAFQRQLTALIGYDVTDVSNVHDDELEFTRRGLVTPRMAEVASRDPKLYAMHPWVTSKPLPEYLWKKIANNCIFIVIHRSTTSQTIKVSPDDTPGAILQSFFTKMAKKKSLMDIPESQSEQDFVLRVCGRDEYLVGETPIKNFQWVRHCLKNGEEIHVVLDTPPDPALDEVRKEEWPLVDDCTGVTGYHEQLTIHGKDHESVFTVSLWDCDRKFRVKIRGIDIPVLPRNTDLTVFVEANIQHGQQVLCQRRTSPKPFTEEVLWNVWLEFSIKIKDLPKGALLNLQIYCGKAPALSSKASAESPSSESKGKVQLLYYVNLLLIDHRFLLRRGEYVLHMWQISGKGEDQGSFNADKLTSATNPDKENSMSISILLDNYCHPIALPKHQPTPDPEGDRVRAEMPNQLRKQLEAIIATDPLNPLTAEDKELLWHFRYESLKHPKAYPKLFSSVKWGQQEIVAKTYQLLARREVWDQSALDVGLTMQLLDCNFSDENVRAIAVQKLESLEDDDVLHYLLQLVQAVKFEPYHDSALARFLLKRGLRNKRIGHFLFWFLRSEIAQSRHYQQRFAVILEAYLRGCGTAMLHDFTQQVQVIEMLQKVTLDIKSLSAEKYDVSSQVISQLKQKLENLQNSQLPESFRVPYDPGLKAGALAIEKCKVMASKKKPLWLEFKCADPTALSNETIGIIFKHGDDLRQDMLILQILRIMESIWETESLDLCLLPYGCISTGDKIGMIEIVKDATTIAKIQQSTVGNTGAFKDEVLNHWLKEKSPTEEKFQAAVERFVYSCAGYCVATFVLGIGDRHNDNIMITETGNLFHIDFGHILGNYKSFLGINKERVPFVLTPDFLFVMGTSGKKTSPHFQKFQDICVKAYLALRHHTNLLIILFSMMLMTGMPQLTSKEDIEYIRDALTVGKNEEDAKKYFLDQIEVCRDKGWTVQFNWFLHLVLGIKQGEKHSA

`Nc1ncc(-c2ccc3ncc(-c4ccc(C(=O)N5CCN(CCN6CCOCC6)CC5)c(F)c4)n3n2)cc1C(F)(F)F` [Example 106, {4-[6-(6-Amino-5-trifluoro-methyl-pyridin-3-yl)-imidazo [1,2-b]pyridazin-3-yl]-2-fluoro-phenyl}-[4-(2-morpholin-4-yl-ethyl)-piperazin-1-yl]-methanone]: the IC50 was 0.291 µM on PI3K delta, 0.788 µM at PI3K gamma, more than 9.1 µM at PI3K beta and 0.171 µM on PI3K alfa.

In the case of `CN(C)CCN1CCN(C(=O)c2ccc(-c3cnc4ccc(-c5cnc(N)c(C(F)(F)F)c5)nn34)cc2F)CC1` [Example 107, {4-[6-(6-Amino-5-trifluoro-methyl-pyridin-3-yl)-imidazo [1,2-b]pyridazin-3-yl]-2-fluoro-phenyl}-[4-(2-dimethyl-amino-ethyl)-piperazin-1-yl]-methanone], the IC50 at PI3K delta was 0.03 µM; at PI3K gamma, 0.827 µM; on PI3K beta it was 0.497 µM; at PI3K alfa, 0.026 µM.

Take `CCN(CC)CCNC(=O)c1ccc(-c2cnc3ccc(-c4cnc(N)c(C(F)(F)F)c4)nn23)cc1F` [Example 108, 4-[6-(6-Amino-5-trifluoro-methyl-pyridin-3-yl)-imidazo [1,2-b]pyridazin-3-yl]-N-(2-diethyl-amino-ethyl)-2-fluoro-benzamide]: the IC50 is 0.142 µM at PI3K delta, 0.565 µM at PI3K gamma, 0.575 µM at PI3K beta and 0.091 µM at PI3K alfa.

Take `COc1cc(-c2cnc3ccc(-c4cnc(N)c(C(F)(F)F)c4)nn23)ccc1C(=O)O` [Example 109, 4-[6-(6-Amino-5-trifluoromethyl-pyridin-3-yl)-imidazo [1,2-b]pyridazin-3-yl]-2-methoxy-benzoic acid]: the IC50 on PI3K delta came to 0.01 µM; at PI3K gamma, 0.405 µM; at PI3K beta it was 0.062 µM; at PI3K alfa it was 0.006 µM.

For `COc1cc(-c2ccc3ncc(-c4cnc5[nH]ccc5c4)n3n2)ccc1OCCN1CCCC1=O` [Example 110, 1-(2-{2-Methoxy-4-[3-(1H-pyrrolo [2,3-b]pyridin-5-yl)-imidazo [1,2-b]pyridazin-6-yl]-phenoxy}-ethyl)-pyrrolidin-2-one], the IC50 at PI3K delta came to 0.077 µM; at PI3K gamma, 1.37 µM; on PI3K beta, 1.18 µM; at PI3K alfa, 0.04 µM.

As to `COc1cc(-c2ccc3ncc(-c4ccc(S(=O)(=O)CCN5CCOCC5)cc4)n3n2)ccc1OCCN1CCCC1=O` [Example 111, 1-[2-(2-Methoxy-4-{3-[4-(2-morpholin-4-yl-ethane-sulfonyl)-phenyl]-imidazo [1,2-b]pyridazin-6-yl}-phenoxy)-ethyl]-pyrrolidin-2-one], the IC50 was 0.427 µM on PI3K delta, more than 9.1 µM at PI3K gamma, 7.55 µM at PI3K beta and 0.954 µM on PI3K alfa.

Turning to `Nc1ncc(-c2ccc3ncc(-c4ccc(C(=O)N5CCN(Cc6cccnc6)CC5)c(F)c4)n3n2)cc1C(F)(F)F` [Example 112, {4-[6-(6-Amino-5-trifluoro-methyl-pyridin-3-yl)-imidazo [1,2-b]pyridazin-3-yl]-2-fluoro-phenyl}-(4-pyridin-3-ylmethyl-piperazin-1-yl)-methanone], the IC50 on PI3K delta is 0.014 µM; at PI3K gamma it was 0.956 µM; at PI3K beta it was 0.623 µM; on PI3K alfa, 0.012 µM.

With `Nc1ncc(-c2ccc3ncc(-c4ccc(C(=O)N5CCN(CCO)CC5)c(F)c4)n3n2)cc1C(F)(F)F` [Example 113, {4-[6-(6-Amino-5-trifluoro-methyl-pyridin-3-yl)-imidazo [1,2-b]pyridazin-3-yl]-2-fluoro-phenyl}-[4-(2-hydroxy-ethyl)-piperazin-1-yl]-methanone], the IC50 at PI3K delta is 0.013 µM; at PI3K gamma it was 0.555 µM; on PI3K beta, 0.068 µM; at PI3K alfa it was 0.011 µM.

On to `Nc1ncc(-c2ccc3ncc(-c4ccc(C(=O)N5CCN(Cc6ccc(F)cc6)CC5)c(F)c4)n3n2)cc1C(F)(F)F` [Example 114, {4-[6-(6-Amino-5-trifluoromethyl-pyridin-3-yl)-imidazo [1,2-b]pyridazin-3-yl]-2-fluoro-phenyl}-[4-(4-fluoro-benzyl)-piperazin-1-yl]-methanone], for which the IC50 on PI3K delta came out at 0.829 µM; on PI3K gamma it was 1.44 µM; on PI3K beta, 4.07 µM; at PI3K alfa it was 0.14 µM.

On to `COc1cc(-c2cnc3ccc(-c4cnc(N)c(C(F)(F)F)c4)nn23)ccc1C(=O)NCCN1CCOCC1` [Example 115, 4-[6-(6-Amino-5-trifluoro-methyl-pyridin-3-yl)-imidazo [1,2-b]pyridazin-3-yl]-2-methoxy-N-(2-morpholin-4-yl-ethyl)-benzamide], for which the IC50 at PI3K delta was determined as 0.022 µM; on PI3K gamma it was 0.397 µM; on PI3K beta, 0.078 µM; on PI3K alfa it was 0.009 µM.

Consider `COc1cc(-c2cnc3ccc(-c4cnc(N)c(C(F)(F)F)c4)nn23)ccc1C(=O)N1CCN(Cc2ccccn2)CC1` [Example 116, {4-[6-(6-Amino-5-trifluoro-methyl-pyridin-3-yl)-imidazo [1,2-b]pyridazin-3-yl]-2-methoxy-phenyl}-(4-pyridin-2-ylmethyl-piperazin-1-yl)-methanone], for which the IC50 was determined as 0.004 µM at PI3K delta, 0.41 µM at PI3K gamma, 0.042 µM at PI3K beta and 0.003 µM on PI3K alfa.

For `COc1cc(-c2cnc3ccc(-c4cnc(N)c(C(F)(F)F)c4)nn23)ccc1C(=O)N1CCN(Cc2cccnc2)CC1` [Example 117, {4-[6-(6-Amino-5-trifluoro-methyl-pyridin-3-yl)-imidazo [1,2-b]pyridazin-3-yl]-2-methoxy-phenyl}-(4-pyridin-3-ylmethyl-piperazin-1-yl)-methanone], the IC50 on PI3K delta came to 0.01 µM; at PI3K gamma it was 0.446 µM; on PI3K beta, 0.217 µM; on PI3K alfa it was 0.009 µM.

Turning to `COc1cc(-c2cnc3ccc(-c4cnc(N)c(C(F)(F)F)c4)nn23)ccc1C(=O)N1CCN(CCN2CCOCC2)CC1` [Example 118, {4-[6-(6-Amino-5-trifluoro-methyl-pyridin-3-yl)-imidazo [1,2-b]pyridazin-3-yl]-2-methoxy-phenyl}-[4-(2-morpholin-4-yl-ethyl)-piperazin-1-yl]-methanone], the IC50 at PI3K delta was determined as 0.006 µM; on PI3K gamma it was 0.405 µM; on PI3K beta it was 0.178 µM; on PI3K alfa, 0.008 µM.

For `COc1cc(-c2cnc3ccc(-c4cnc(N)c(C(F)(F)F)c4)nn23)ccc1C(=O)N1CCN(CC(=O)N2CCOCC2)CC1` [Example 119, 2-(4-{4-[6-(6-Amino-5-trifluoro-methyl-pyridin-3-yl)-imidazo [1,2-b]pyridazin-3-yl]-2-methoxy-benzoyl}-piperazin-1-yl)-1-morpholin-4-yl-ethanone], the IC50 on PI3K delta worked out at 0.013 µM; on PI3K gamma, 0.406 µM; on PI3K beta, 0.137 µM; on PI3K alfa it was 0.009 µM.

Take `COc1cc(-c2cnc3ccc(-c4cnc(N)c(C(F)(F)F)c4)nn23)ccc1C(=O)N1CCN(c2ccccn2)CC1` [Example 120, {4-[6-(6-Amino-5-trifluoro-methyl-pyridin-3-yl)-imidazo [1,2-b]pyridazin-3-yl]-2-methoxy-phenyl}-(4-pyridin-2-yl-piperazin-1-yl)-methanone]: the IC50 came to 0.025 µM on PI3K delta, 0.757 µM at PI3K gamma, 0.389 µM at PI3K beta and 0.016 µM on PI3K alfa.

On to `Nc1ncc(-c2ccc3ncc(-c4ccc(S(N)(=O)=O)cc4)n3n2)cc1C(F)(F)F` [Example 121, 4-[6-(6-Amino-5-trifluoro-methyl-pyridin-3-yl)-imidazo [1,2-b]pyridazin-3-yl]-benzene-sulfon-amide], for which the IC50 on PI3K delta amounted to 0.026 µM; at PI3K gamma, 3.31 µM; at PI3K beta it was 0.019 µM; at PI3K alfa, 0.024 µM.

For the molecule `Nc1ncc(-c2cnc3ccc(-c4ccc(C(=O)NCCN5CCOCC5)cc4)nn23)cc1C(F)(F)F` [Example 122, 4-[3-(6-Amino-5-trifluoro-methyl-pyridin-3-yl)-imidazo [1,2-b]pyridazin-6-yl]-N-(2-morpholin-4-yl-ethyl)-benzamide], the IC50 on PI3K delta was found to be 0.199 µM; on PI3K gamma it was 1.4 µM; on PI3K beta it was 0.986 µM; at PI3K alfa, 0.043 µM.

In the case of `Nc1ncc(-c2ccc3ncc(-c4ccc(S(=O)(=O)NCCN5CCOCC5)cc4)n3n2)cc1C(F)(F)F` [Example 124, 4-[6-(6-Amino-5-trifluoro-methyl-pyridin-3-yl)-imidazo [1,2-b]pyridazin-3-yl]-N-(2-morpholin-4-yl-ethyl)-benzene-sulfonamide], the IC50 at PI3K delta worked out at 0.029 µM; on PI3K gamma, 0.529 µM; at PI3K beta, 0.157 µM; at PI3K alfa, 0.018 µM.
